Assay results published in US20240407993A1, “PEPTIDE HAVING ANTI-AGING ACTIVITY, AND USE THEREOF” (CAREGEN CO., LTD., priority 2021, published 2024).

What was measured:
Col1a1 [1] = experiment: Col1a1 mRNA level decreased by UV irradiation, RT-PCR in fibroblasts; assay type: cell-based, mouse; conditions: NIH3T3 cells, 8 J/cm^2 UVA, peptide 1, 10, 50 μM, 6 hours after irradiation; FIGS. 5A, 5B
Procedure: (§1) The expression of genes related to extracellular matrix components is inhibited when irradiated with UV.
(§2) First, NIH3T3 cells were seeded in a 6-well plate at a cell density of 5×10^5 cell/well, and then the cells were cultured in DMEM medium containing 10% fetal bovine serum (FBS) for 24 hours. The cultured cells were washed once with serum free DMEM medium, and then the peptide of the present invention was mixed in 1 mL of the serum free DMEM medium at each of concentrations of 1, 10, and 50 μM, and dispensed into the cells. A positive control (PC) was treated with 50 μM of Quercetin instead of the above peptide. The cells were cultured in a CO2 incubator at 37° C. for 1 hour.
(§3) The medium of the cultured cells was transferred to a tube (e-tube), 1 ml of PBS was added, and irradiation was performed with 8 J/cm^2 of UVA using a UV irradiator (VILBER LOURMAT, Cat No.: 3102-BSU, France). After removing PBS, 900 μL of the medium transferred to the tube was dispensed, and culture was performed in a CO2 incubator at 37° C. for 6 hours. The cultured cells were washed twice with PBS, and then RNA was extracted from the cells using easy blue (iNtRON, Cat. No.: 17061, Korea). The amount of RNA extracted was quantified, 1,000 ng of RNA was added per tube, and RT reaction was performed using a kit (enzynomics, Cat. No.: RT200, Korea). […]

HaCaT cells = experiment: Intracellular ROS level after UVB irradiation (DCFH-DA, FACS) in keratinocytes; assay type: cell-based, human; conditions: 15 mJ/cm^2 UVB, peptide 1, 10, 50 μM, 24 hours after irradiation, FIG. 4B
Procedure: The reactive oxygen species level increases when UV is irradiated. Therefore, it was confirmed whether the reactive oxygen species level decreased again and the aging phenomenon caused by oxidative stress in cells was inhibited when treated with the peptide of the present invention.
as §2, with “NIH3T3 cells and HaCaT” for “NIH3T3”, “cell/well, respectively,” for “cell/well,”, “with 2.5 mM” for “with 50 μM”, “of N-Acetylcysteine (NaC)” for “of Quercetin”, “peptide.” for “peptide. The cells were cultured in a CO2 incubator at 37° C. for 1 hour.”
The cells were cultured in a CO2 incubator at 37° C. for 1 hour. The medium of the cultured cells was transferred to a tube, 1 ml of PBS was added, and then the NIH3T3 cells were irradiated with 8 J/cm^2 of UVA and the HaCaT cells were irradiated with 15 mJ/cm^2 of UVB using a UV irradiator (VILBER LOURMAT, Cat No.: 3102-BSU, France). […] After centrifugation, the cells were washed with PBS, and a fluorescence value was measured through FACS.

Elastin = Elastin mRNA level decreased by UV irradiation, RT-PCR in fibroblasts; assay type: cell-based, mouse; conditions: NIH3T3 cells, 8 J/cm^2 UVA, peptide 1, 10, 50 μM, 6 hours after irradiation; FIGS. 5A, 5D
Procedure: as §1, §2, §3

Fibronectin = Fibronectin mRNA level decreased by UV irradiation, RT-PCR in fibroblasts; assay type: cell-based, mouse; conditions: NIH3T3 cells, 8 J/cm^2 UVA, peptide 1, 10, 50 μM, 6 hours after irradiation; FIGS. 5A, 5C
Procedure: as §1, §2, §3

Col1a1 [2] = experiment: Col1a1 (collagen) gene expression by RT-PCR in fibroblasts; assay type: cell-based, mouse; conditions: NIH3T3 cells, peptide 1, 10, 50 μM, 24 hours; FIGS. 1A, 1B
Procedure: First, NIH3T3 cells (mouse fibroblast cell line) were seeded in a 6-well plate at a cell density of 3×10^5 cell/well, and then the cells were cultured in DMEM medium containing 10% fetal bovine serum (FBS) for 24 hours. The cultured cells were washed once with serum free DMEM medium, and the peptide of the present invention was mixed in 1 mL of the serum free DMEM medium at each of concentrations of 1, 10, and 50 μM, and dispensed into the cells. A positive control (PC) was treated with 5 ng/ml of TGF-β1 instead of the above peptide. The cells were cultured in a CO2 incubator at 37° C. for 24 hours.
The cultured cells were washed twice with PBS, and RNA was extracted from the cells using easy blue (iNtRON, Cat. No.: 17061, Korea). The amount of RNA extracted was quantified, 1,000 ng of RNA was added per tube, and RT reaction was performed using a kit (enzynomics, Cat. No.: PT200, Korea). RT-PCR was performed using a PCR kit (enzynomics, Cat. No.: […], Korea). The sequences of the primers of collagen, fibronectin, and elastin used in RT-PCR and the sequence of the primer of GAPDH used to compare the total RNA amount of each treatment group are shown in [Table 2].

LCACCLHNCNECQ
mRNA level of Col1a1 decreased by UV irradiation (Col1a1 [1]): increased again | intracellular reactive oxygen species level increased by UV irradiation (HaCaT cells): decreased | mRNA level of elastin decreased by UV irradiation (Elastin): increased again | mRNA level of fibronectin decreased by UV irradiation (Fibronectin): increased again | expression of the collagen (Col1a1) gene (Col1a1 [2]): gradually increased as a concentration of the peptide increased
